From patent US11779565B2, “Small organic molecules for use in the treatment of neuroinflammatory disorders” (THE MEDICAL RESEARCH, INFRASTRUCTURE AND HEALTH SERVICES …, priority 2017, dated 2023)

Tests used:
RR-EAE mice = assay: De novo expression of NeuN (BrdU+NeuN+ cells) in SGZ of RR-EAE mice; type: in vivo
Description: FIGS. 12A-12B—The effect of SM1, SM7, SM9 and SM6 on de novo expression of mature neurons marker NeuN in the SGZ. FIG. 12A: immunohistochemical images showing the labeling of BrdU^+NeuN^+ cells in the SGZ. Images were obtained using Olympus 8.1 microscope (magnification×10). FIG. 12B: Quantification of BrdU^+NeuN^+ in the SGZ. Analysis was performed using image J software on 3 sections from each mouse (3 mice from each group, total n=9). Values are given as mean±SEM and the results of Student's t-test are represented as *p<0.05.
RR-EAE induced mice were intraperitoneally injected with 250 μg/mouse (Low-L) or 500 μg/mouse (High-H) of the small molecules SM1, SM7, SM9, SM6, or the corresponding vehicle. The SMs were injected each day starting on day 9 post immunization for 30 days. For immunohistochemical analysis, 3 mice of each group were intraperitoneally injected daily with bromo-2′-deoxyuridine (BrdU) starting from day 9 post immunization for 8 following days.
In this experiment, the amount of BrdU^+NeuN^+ cells in the SGZ of mice was evaluated. FIGS. 12A-12B show immunohistochemical labeling of BrdU^+NeuN^+ cells in mice with EAE that were treated with SMs or vehicle, using Olympus 8.1 microscope (magnification×10).

ATDC5 cells = assay: Cell viability (CellTiter-Glo) in the ATDC5 HTS bioassay; type: cell-based; conditions: library screening
Description: Poly-L-lysine (Sigma-Aldrich) was added to 384-well plates and was removed after 30 min of incubation at RT. An assay medium containing DMEM/F12, 2% FBS, 100 units/ml penicillin, […] streptomycin (Biological industries) was added to each well. […] ATDC5 cells (Sigma-Aldrich) were harvested, re-suspended in assay medium and added to a final concentration of 2000 cells/well. Finally, heparin (Sigma-Aldrich) was added to a final concentration of 2 μg/ml. The cells were incubated for 48 hours at 37° C. with 5% CO2 in a humidified chamber in the presence or absence of potential small molecule inhibitors of BPM-2. After incubation, ALP levels and cell viability were determined using a completely automated protocol. Cells were washed with PBS, lysed using a lysis buffer containing 0.2% Triton X-100 in PBS supplemented with a protease inhibitor cocktail (Sigma-Aldrich) and incubated for 25 min at RT. ALP level was then determined by addition of CDP-Star® chemiluminescent substrate (Sigma-Aldrich) and measurement of luminescence after incubation for 25 min at RT in the dark. Cell viability was finally determined by addition of CellTiter-Glo® reagent (Biological Industries) and luminescence measurement after 10 min of incubation.
An ATDC5 cell based assay for assessing structure-function relationship of BMP-2 and BMP receptor IA was originally described in Keller et al (Nature Structural & Molecular Biology 2004 11, 481-488). In order to screen a large volume of potential therapeutic agents the ATDC5 cell based bioassay for detecting BMP inhibition was adapted for use in high throughput screening. The bioassay is based on the stimulation of alkaline phosphatase (ALP) production in mouse ATDC5 cells by administration of BMP-2 and heparin, and measurement of ALP levels in the presence of the potential inhibitors. The assay was characterized by the following features: • (a) optimal conditions for HTS automated instruments were found so as to obtain a satisfying gap (i.e. positive Z-prime, above 0.5) between ALP production in the presence of BMP-2, to ALP production in the absence of BMP-2 (no stimulation). • (b) a sensitive method was designed for ALP determination for HTS—namely, the use of CDP-Star® chemiluminescent substrate and luminescence measurement. • (c) both ALP production and cells' viability were measured simultaneously. This was achieved by using CellTiter-Glo® Luminescent Cell Viability Assay for assessing the cells' viability after the luminescent signal by CDP-Star® has faded. […]
A library of small molecules (SM) was screened using the High Throughput Screening bioassay described above. […] The ALP levels and cell viability are shown in FIG. 2 as a percentage of the ALP or viability luminescence levels in the presence of BMP-2 without the SM. […]

[1] = high dose (H) 500 μg/mouse i.p. daily

Structure (SMILES): COC(=O)c1sccc1N/N=C(\C#N)S(=O)(=O)c1cccs1 [SM1, Methyl 3-[(2E)-2-[cyano(thiophen-2-ylsulfonyl)methylidene]hydrazinyl]thiophene-2-carboxylate]
- BrdU+NeuN+ cells in the SGZ vs. vehicle (RR-EAE mice; [1]): significant increased induction
- cytotoxicity in mouse ATDC5 cells (ATDC5 cells): without leading to cytotoxicity

Structure (SMILES): O=C(Nc1cccc(C(F)(F)F)c1)c1ccc([N+](=O)[O-])o1 [SM6, N2-[3-(trifluoromethyl)phenyl)-5-nitro-2-furamide]
- cytotoxicity in mouse ATDC5 cells (ATDC5 cells): without leading to cytotoxicity

Structure (SMILES): N#Cc1c(O)nsc1Nc1ccccc1C(F)(F)F [SM7, 3-hydroxy-5-[2-(trifluoromethyl)aniline]isothiazole-4-carbonitrile]
- cytotoxicity in mouse ATDC5 cells (ATDC5 cells): without leading to cytotoxicity

Structure (SMILES): CS(=O)(=O)c1noc(-c2ccc(Cl)cc2)c1C#N [SM9, 5-(4-chlorophenyl)-3-methylsulfonyl-1,2-oxazole-4-carbonitrile]
- BrdU+NeuN+ cells in the SGZ vs. vehicle (RR-EAE mice; [1]): trend for increased
- BrdU+NeuN+ cells in the SGZ vs. vehicle (RR-EAE mice; low dose (L) 250 μg/mouse i.p. daily): significant increased induction
- cytotoxicity in mouse ATDC5 cells (ATDC5 cells): without leading to cytotoxicity
